Experimental data from patent US8691817B2, “Sulfonic amide and sulfoximine-substituted diaryl-dihydropyrimidinones and usage thereof” (Bayer Intellectual Property GmbH, priority 2009, dated 2014).
In brackets after ≈: the same amount, converted by molar mass.

Legend:
[1] = target: T1, human neutrophil elastase (HNE) (Homo sapiens, UniProt P08246); assay: In vitro HNE inhibition assay; assay type: biochemical; conditions: HNE concentration of 80 pM; substrate MeOSuc-Ala-Ala-Pro-Val-AMC; 37° C., 2 hours
T1 construct: purchased Serva, Heidelberg
T1 sequence (P08246 30-267): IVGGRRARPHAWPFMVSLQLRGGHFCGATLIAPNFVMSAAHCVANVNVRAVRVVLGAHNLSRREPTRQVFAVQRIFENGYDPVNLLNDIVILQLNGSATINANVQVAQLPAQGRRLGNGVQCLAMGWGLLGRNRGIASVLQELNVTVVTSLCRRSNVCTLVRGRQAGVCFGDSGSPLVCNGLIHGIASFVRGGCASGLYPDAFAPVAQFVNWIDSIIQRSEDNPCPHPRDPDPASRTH
Procedure: The potency of the compounds of the invention is ascertained in an in vitro inhibition assay. The HNE-mediated amidolytic cleavage of a suitable peptide substrate leads in this connection to an increase in the fluorescent light. The signal intensity of the fluorescent light is directly proportional to the enzyme activity.
Enzyme (80 pM HNE; from Serva, Heidelberg) and substrate (20 μM MeOSuc-Ala-Ala-Pro-Val-AMC; from Bachem, Weil am Rhein) are incubated in an assay volume of in total 50 μl of assay buffer (0.1 M HEPES pH 7.4, 0.5 M NaCl, 0.1% w/v BSA, 1% v/v DMSO) in a 384-well microtiter plate in the presence and absence of the test substance at 37° C. for 2 hours.

rat hepatocytes = assay: Hepatocyte assay to determine the metabolic stability; assay type: in vitro ADME; conditions: for Fmax, maximum possible bioavailability after oral administration (well-stirred): rat
Procedure: Seven samples of the incubation solution are taken in a fixed time pattern for the […] analysis in order to determine the half-life (i.e. the degradation) of the compound in each case. Various clearance parameters (CL) and Fmax values are calculated from this half-life (see below).
The Cl and Fmax values represent a measure of the phase 1 and phase 2 metabolism of the compounds in the hepatocytes. In order to minimize the influence of the organic solvent on the enzymes in the incubation mixtures, this concentration is generally limited to 1% (acetonitrile) or 0.1% (DMSO).
A cell count for hepatocytes in the liver of 1.1*10^8 cells/g of liver is used for calculation for all species and breeds.
The calculated parameters and their meaning are: • Fmax well-stirred [%] maximum possible bioavailability after oral administration • Calculation: (1-CLblood well-stirred/QH)*100 • CLblood well-stirred [L/(h*kg)] calculated blood clearance (well-stirred model) • Calculation: (QH*CL′intrinsic)/(QH+CL′intrinsic) • CL′intrinsic [ml/(min*kg] maximum ability of the liver (of the hepatocytes) to metabolize a compound (on the assumption that the hepatic blood flow is not rate-limiting) • Calculation: CL′intrinsic, apparent*species-specific hepatocyte count [1.1* 10^8/g of liver]*species-specific liver weight [g/kg] • CL′intrinsic, apparent [ml/(min*mg)] normalizes the elimination constant by dividing it by the hepatocyte cell count x (x*10^6/ml) employed • Calculation: ke1 [1/min]/(cell count [x*10^6]/incubation volumes [ml]) • (QH=species-specific hepatic blood flow).

[2] = Determination of the solubility in PBS buffer pH 6.5; assay type: physicochemical; conditions: 20° C.
Procedure: B-7. Determination of the Solubility Reagents Required: • PBS buffer pH 6.5: 90.00 g of NaCl p.a. […] Preparation of the Starting Solution (Original Solution):
10 μl of the original solution are transferred into a microtiter plate, and 1000 μl of PBS buffer pH 6.5 are added.
From each of the sample solutions, 100 μl of the supernatant are removed and diluted 1:5 and 1:100 with DMSO. From each dilution, a sample is transferred into a vessel suitable for HPLC analysis.
The samples are analysed by RP-HPLC. Quantification is carried out using a two-point calibration curve of the test compound in DMSO. The solubility is expressed in mg/liter. Analysis sequence: 1) calibration solution […]; 2) calibration solution 20 μg/ml; 3) sample solution 1:5; 4) sample solution 1:100.

IC50 [1] [pM] | CLblood, calculated blood clearance (well-stirred) (rat hepatocytes; hepatocytes) [mL/min/kg] | Fmax, maximum possible bioavailability after oral administration (well-stirred) (rat hepatocytes) [%] | Structure (SMILES) | further results
700 | – | – | CC1=C(C#N)[C@@H](c2ccc(C#N)cc2S(=O)(=O)NCC2CCN(C)C2)NC(=O)N1c1cccc(C(F)(F)F)c1 (stereo partly drawn) [Example 21, 5-cyano-2-{(4S)-5-cyano-6-methyl-2-oxo-1-[3-(trifluoromethyl)phenyl]-1,2,3,4-tetrahydropyrimidin-4-yl}-N-[(1-methylpyrrolidin-3-yl)methyl]-benzenesulfonamide] | –
< 300 | 31.7 | 54 | CC1=C(C#N)[C@@H](c2ccc(C#N)cc2S(=O)(=O)NCC(N)=O)N(C)C(=O)N1c1cccc(C(F)(F)F)c1 [Example 13, N^2-[(5-Cyano-2-{(4S)-5-cyano-3,6-dimethyl-2-oxo-1-[3-(trifluoromethyl)phenyl]-1,2,3,4-tetrahydropyrimidin-4-yl}phenyl)sulfonyl]glycinamide] | –
4500 | – | – | CC1=C(C#N)[C@@H](c2ccc(C#N)cc2S(=O)(=O)NCCCN2CCCC2=O)NC(=O)N1c1cccc(C(F)(F)F)c1 [Example 14] | –
900 | 0 | 100 | CC1=C(C#N)[C@@H](c2ccc(C#N)cc2S(C)(=N)=O)NC(=O)N1c1cccc(C(F)(F)F)c1 (mixture of isomers) [Example 41, (SS)-(4S)-4-[4-Cyano-2-(S-methylsulfonimidoyl)phenyl]-6-methyl-2-oxo-1-[3-(trifluoromethyl)phenyl]-1,2,3,4-tetrahydropyrimidine-5-carbonitrile or (RS)-(4S)-4-[4-cyano-2-(S-methylsulfonimidoyl)phenyl]-6-methyl-2-oxo-1-[3-(trifluoromethyl)phenyl]-1,2,3,4-tetrahydropyrimidine-5-carbonitrile] | –

Further lines, the molecule ahead of its results:

Structure (SMILES) | IC50 [1] [pM] | CLblood, calculated blood clearance (well-stirred) (rat hepatocytes; hepatocytes) [mL/min/kg] | Fmax, maximum possible bioavailability after oral administration (well-stirred) (rat hepatocytes) [%] | further results
CC1=C(C#N)[C@@H](c2ccc(C#N)cc2S(=O)(=O)N2CCOCC2)NC(=O)N1c1cccc(C(F)(F)F)c1 [Example 4, (4S)-4-[4-Cyano-2-(morpholin-4-ylsulfonyl)phenyl]-6-methyl-2-oxo-1-[3-(trifluoromethyl)phenyl]-1,2,3,4-tetrahydropyrimidine-5-carbonitrile] | < 300 | – | – | –
CC1=C(C#N)[C@@H](c2ccc(C#N)cc2S(N)(=O)=O)NC(=O)N1c1cccc(C(F)(F)F)c1 [Example 1, 5-Cyano-2-{(4S)-5-cyano-6-methyl-2-oxo-1-[3-(trifluoromethyl)phenyl]-1,2,3,4-tetrahydropyrimidin-4-yl}benzenesulfonamide] | 400 | 1.7 | 97 | –
CC1=C(C#N)[C@@H](c2ccc(C#N)cc2S(=O)(=O)NCCO)N(C)C(=O)N1c1cccc(C(F)(F)F)c1 [Example 11, 5-Cyano-2-{(4S)-5-cyano-3,6-dimethyl-2-oxo-1-[3-(trifluoromethyl)phenyl]-1,2,3,4-tetrahydropyrimidin-4-yl}-N-(2-hydroxyethyl)benzenesulfonamide] | < 300 | – | – | solubility at 24 h ([2]; aqueous buffer, kinetic from dmso stock): 300 µg/mL (≈ 577 µM)
CC1=C(C#N)[C@@H](c2ccc(C#N)cc2S(C)(=N)=O)N(C)C(=O)N1c1cccc(C(F)(F)F)c1 (mixture of isomers) [Example 38, (SS)-(4S)-4-[4-Cyano-2-(S-methylsulfonimidoyl)phenyl]-3,6-dimethyl-2-oxo-1-[3-(trifluoromethyl)phenyl]-1,2,3,4-tetrahydropyrimidine-5-carbonitrile or (RS)-(4S)-4-[4-cyano-2-(S-methylsulfonimidoyl)phenyl]-3,6-dimethyl-2-oxo-1-[3-(trifluoromethyl)phenyl]-1,2,3,4-tetrahydropyrimidine-5-carbonitrile] | – | – | – | Solubility ([2]; 24 hours): 300 µg/mL (≈ 634 µM); CLblood, calculated blood clearance (well-stirred) (rat hepatocytes; after incubation with rat hepatocytes): 0 mL/min/kg
CC1=C(C#N)[C@@H](c2ccc(C#N)cc2S(N)(=O)=O)N(C)C(=O)N1c1cccc(C(F)(F)F)c1 [Example 10, 5-Cyano-2-{(4S)-5-cyano-3,6-dimethyl-2-oxo-1-[3-(trifluoromethyl)phenyl]-1,2,3,4-tetrahydropyrimidin-4-yl}benzenesulfonamide] | < 300 | – | – | –
CNS(=O)(=O)c1cc(C#N)ccc1[C@H]1NC(=O)N(c2cccc(C(F)(F)F)c2)C(C)=C1C#N [Example 2, 5-Cyano-2-{(4S)-5-cyano-6-methyl-2-oxo-1-[3-(trifluoromethyl)phenyl]-1,2,3,4-tetrahydropyrimidin-4-yl}-N-methylbenzenesulfonamide] | < 300 | 31.7 | 54 | –
CC1=C(C#N)[C@@H](c2ccc(C#N)cc2S(=O)(=O)N(C)C)NC(=O)N1c1cccc(C(F)(F)F)c1 [Example 3, 5-Cyano-2-{(4S)-5-cyano-6-methyl-2-oxo-1-[3-(trifluoromethyl)phenyl]-1,2,3,4-tetrahydropyrimidin-4-yl}-N,N-dimethylbenzenesulfonamide] | < 300 | – | – | –
